# In patent US12617783B2, “Heterocyclic GLP-1R agonists” (BIOMEA FUSION, INC., priority 2024, dated 2026):
# What was measured:
# [1] = Pharmacokinetic analysis in cynomolgus monkeys
# Method: Pharmacokinetic Analysis of the Compound 36, Compound 121, Compound 214, and Orforglipron in Cynomolgus Monkeys
# Non naïve male cynomolgus monkeys (n=3 monkeys/group) were fasted overnight and fed 4 hours post dose. Compounds of the present application were formulated in 10% polyethylene glycol 400/10% propylene glycol/80% glycine buffer (100 mM glycine, 64 mM NaOH, pH 10).
# The compound was administered by i.v. infusion for 30 minutes at 0.12 mg/kg (dose volume 1 mL/kg at a speed of 2 mL/kg/h) or orally doses of 0.36 mg/kg. Blood samples were collected pre-dose and 0.25, 0.5 (just before the infusion is stopped), 0.75, 1, 1.5, 2.5, 4, 8, 16, 24 hr post dose for i.v. administration group. Blood samples were also collected pre-dose, 0.5, 1, 2, 3, 4, 8, 16 and 24 hr after administration in orally dosing group.
# [2] = Pharmacokinetic analysis in male SD rats; type: in vivo
# Method: The rats have free access to food and water. Blood samples were collected pre-dose and 0.083, 0.25, 0.5, 1, 2, 4, 8, 24 hours post dose for i.v. administration group. Blood samples were also collected pre-dose and 0.25, 0.5, 1, 2, 4, 8, and 24 hours after administration in orally dosing group.
# human GLP-1R = target: T1, human GLP-1R (Homo sapiens, UniProt P43220); assay: GLP-1R cAMP assay (Example B1b, HTRF, 30 min at 37°); type: cell-based; conditions: cAMP accumulation in HEK293 expressing human GLP-1R, no BETP, 30 min at 37° (Method B1b), Table 1
# T1 construct: host or cells: HEK293
# Method: Assay was carried out with HEK293 expressing human GLP-1R using HTRF assay, developed by Wuxi Apptec. The method is a competitive assay between native cAMP produced by the cells and exogenous cAMP labeled with a proprietary dye d2. The tracer binding is visualized by a mAb anti-cAMP labeled with Cryptate. The signal (i.e. energy transfer) is inversely proportional to the concentration of CAMP in either standard or experimental sample. Compounds were tested in the absence of BETP. Ten microliter of cell suspension in assay buffer (5 mM HEPES, 500 μM IBMX, 0.1% BSA) were added to each well (1,000 cells per well) in a low volume 384-well plate for the assay. Serially diluted compounds were added in 100 nL volume to duplicate wells, by Labcyte Echo. GLP-1 (7-37) was used as positive control. Assay plate was incubated for 30 minutes at 37°. Stock of cAMP Detection Solution was prepared by mixing 38 parts of cAMP lysis buffer, 1 part of cAMP-D2, 1 part of anti-cAMP cryptate reagent (Cisbio #62AM4PEJ). Ten microliter of the cAMP Detection Solution was added to each well, and the assay plate was incubated for 1 hour at room temperature in the dark. Plates were read on Envision plate reader. The data were analyzed by ScreenUltra in Dotmatics, with % activation expressed using following formula: (Signal ratio […]*10000−negative control)/(postive control−negative control)*100. Dose response curves were plotted and EC50 values calculated by non-linear regression using 4-parameter fit. The potency (EC50) values for cAMP accumulation in HEK293 cells are reported in the Table 1 below (for compounds ID 610-708).
# [3] = male, cynomolgus monkey, plasma, iv, 0.12 mg/kg
# [4] = male, cynomolgus monkey, plasma, po, 0.36 mg/kg
# [5] = Sprague-Dawley (SD), rat, plasma, 1.0 mg/kg iv
# [6] = Sprague-Dawley (SD), rat, plasma, 5.0 mg/kg po
# T1 sequence (P43220 24-463): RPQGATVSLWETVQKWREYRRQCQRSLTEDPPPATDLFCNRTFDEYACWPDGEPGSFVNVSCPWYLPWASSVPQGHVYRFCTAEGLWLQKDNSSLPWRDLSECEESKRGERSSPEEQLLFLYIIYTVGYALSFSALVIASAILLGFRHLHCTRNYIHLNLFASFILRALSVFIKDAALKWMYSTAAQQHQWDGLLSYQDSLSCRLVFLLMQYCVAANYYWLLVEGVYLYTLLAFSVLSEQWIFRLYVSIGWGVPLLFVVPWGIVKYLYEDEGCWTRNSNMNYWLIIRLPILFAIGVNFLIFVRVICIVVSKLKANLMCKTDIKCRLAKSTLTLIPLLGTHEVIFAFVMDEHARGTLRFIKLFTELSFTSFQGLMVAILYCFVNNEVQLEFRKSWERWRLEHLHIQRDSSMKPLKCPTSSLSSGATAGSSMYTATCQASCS
smiles,measurement,setting,value
"Cc1cc(-n2nc3c(c2-n2ccn(-c4ccc5c(cnn5C)c4F)c2=O)[C@H](C)N(C(=O)c2cc4cc([C@H]5CCOC(C)(C)C5)ccc4n2[C@@]2(c4noc(=O)[nH]4)C[C@@H]2C)CC3)cc(C)c1F [Orforglipron, orforglipron, reference compound]",Oral F,"[1]; cynomolgus monkeys, 0.36 mg/kg po vs 0.12 mg/kg iv",29.4%
same,AUC(0-inf),[1]; [3],517 ng·h/mL
same,Vd,[1]; [3],0.846 L/kg
same,clearance,[1]; [3],3.98 mL/min/kg
same,half-life,[1]; [3],3.7 h
same,AUC(0-inf),[1]; [4],456 ng·h/mL
same,Cmax,[1]; [4],79.5 ng/mL
same,Tmax,[1]; [4],1.33 h
same,half-life,[1]; [4],4.24 h
same,Oral F,[2]; 5.0 mg/kg po vs 1.0 mg/kg iv,11.2%
same,AUC(0-inf),[2]; [5],6840 ng·h/mL
same,clearance,[2]; [5],2.47 mL/min/kg
same,half-life,[2]; [5],8.13 h
same,Vd,"[2]; Sprague-Dawley (SD), rat, plasma, 1.0 mg/kg iv, read-out: Vdss",1.42 L/kg
same,AUC(0-inf),[2]; [6],3420 ng·h/mL
same,Cmax,[2]; [6],240 ng/mL
same,Tmax,[2]; [6],4 h
same,half-life,[2]; [6],7.44 h
"Cc1cc(-n2nc3c(c2-n2ccn(-c4ccc5cnccc5c4F)c2=O)[C@@H]2CCC[C@H](C3)N2C(=O)c2cc3cc([C@H]4CCOC5(CC5)C4)ccc3n2[C@@]2(c3noc(=O)[nH]3)C[C@@H]2C)cc(C)c1F [Compound 614, 3-((1S,2S)-1-(2-((4S,8R)-2-(4-fluoro-3,5-dimethylphenyl)-3-(3-(5-fluoroisoquinolin-6-yl)-2-oxo-2,3-dihydro-1H-imidazol-1-yl)-4,5,6,7,8,9-hexahydro-2H-4,8-epiminocycloocta [c]pyrazole-10-carbonyl)-5-((S)-4-oxaspiro[2.5]octan-7-yl)-1H-indol-1-yl)-2-methylcyclopropyl)-1,2,4-oxadiazol-5 (4H)-one]",EC50,human GLP-1R,0.0006 µM
"Cc1cc(-n2nc3c(c2-n2ccn(-c4ccc5c(cnn5C)c4F)c2=O)[C@@H]2COC[C@H](C3)N2C(=O)c2cc3cc([C@@H]4CCOC(C)(C)C4)cc(F)c3n2[C@@]2(c3noc(=O)[nH]3)C[C@@H]2C)cc(C)c1F [Compound 706, 3-((1S,2S)-1-(5-((R)-2,2-dimethyltetrahydro-2H-pyran-4-yl)-7-fluoro-2-((4R,8S)-3-(3-(4-fluoro-1-methyl-1H-indazol-5-yl)-2-oxo-2,3-dihydro-1H-imidazol-1-yl)-2-(4-fluoro-3,5-dimethylphenyl)-2,4,5,7,8,9-hexahydro-4,8-epiminooxocino [5,4-c]pyrazole-10-carbonyl)-1H-indol-1-yl)-2-methylcyclopropyl)-1,2,4-oxadiazol-5 (4H)-one]",EC50,human GLP-1R,0.059 µM
"Cc1cc(-n2nc3c(c2-n2ccn(-c4ccc5c(cnn5C)c4F)c2=O)[C@@H]2CC[C@H](C3)N2C(=O)c2c(F)c3cc(C4CCOC(C)(C)C4)ccc3n2[C@@]2(c3noc(=O)[nH]3)C[C@@H]2C)cc(C)c1F (stereo in doubt) [Compound 713, 3-[(1S,2S)-1-[5-[(4R)-2,2-dimethyltetrahydropyran-4-yl]-3-fluoro-2-[(1S,8R)-4-(4-fluoro-3,5-dimethyl-phenyl)-3-[3-(4-fluoro-1-methyl-indazol-5-yl)-2-oxo-imidazol-1-yl]-4,5,11-triazatricyclo[6.2.1.02,6]undeca-2,5-diene-11-carbonyl]indol-1-yl]-2-methyl-cyclopropyl]-4H-1,2,4-oxadiazol-5-one]",EC50,human GLP-1R,0.004 µM
"Cc1cc(-n2nc3c(c2-n2ccn(-c4ccc5ccncc5c4F)c2=O)[C@@H]2CCC[C@H](C3)N2C(=O)c2cc3cc([C@H]4CCOC5(CC5)C4)ccc3n2[C@@]2(c3noc(=O)[nH]3)C[C@@H]2C)cc(C)c1F [Compound 610, 3-((1S,2S)-1-(2-((4S,8R)-2-(4-fluoro-3,5-dimethylphenyl)-3-(3-(8-fluoroisoquinolin-7-yl)-2-oxo-2,3-dihydro-1H-imidazol-1-yl)-4,5,6,7,8,9-hexahydro-2H-4,8-epiminocycloocta [c]pyrazole-10-carbonyl)-5-((S)-4-oxaspiro[2.5]octan-7-yl)-1H-indol-1-yl)-2-methylcyclopropyl)-1,2,4-oxadiazol-5 (4H)-one]",EC50,human GLP-1R,0.0008 µM
"Cc1cc(-n2nc3c(c2-n2ccn(-c4ccc5c(cnn5C)c4F)c2=O)[C@@H]2CCC[C@H](C3)N2C(=O)c2cc3cc(C4CCOC(C)(C)C4)cc(F)c3n2[C@@]2(c3noc(=O)[nH]3)C[C@@H]2C)cc(C)c1F (stereo partly drawn) [Compound 615, 3-((1S,2S)-1-(5-(2,2-dimethyltetrahydro-2H-pyran-4-yl)-7-fluoro-2-((4S,8R)-3-(3-(4-fluoro-1-methyl-1H-indazol-5-yl)-2-oxo-2,3-dihydro-1H-imidazol-1-yl)-2-(4-fluoro-3,5-dimethylphenyl)-4,5,6,7,8,9-hexahydro-2H-4,8-epiminocycloocta [c]pyrazole-10-carbonyl)-1H-indol-1-yl)-2-methylcyclopropyl)-1,2,4-oxadiazol-5 (4H)-one]",EC50,human GLP-1R,0.0142 µM
"Cc1cc(-n2nc3c(c2-n2ccn(-c4ccc5c(cnn5C)c4F)c2=O)[C@@H]2CCC[C@H](C3)N2C(=O)c2cc3cc([C@@H]4CCOC(C)(C)C4)cc(F)c3n2[C@@]2(c3noc(=O)[nH]3)C[C@@H]2C)cc(C)c1F [Compound 701, 3-((1S,2S)-1-(5-((R)-2,2-dimethyltetrahydro-2H-pyran-4-yl)-7-fluoro-2-((4S,8R)-3-(3-(4-fluoro-1-methyl-1H-indazol-5-yl)-2-oxo-2,3-dihydro-1H-imidazol-1-yl)-2-(4-fluoro-3,5-dimethylphenyl)-4,5,6,7,8,9-hexahydro-2H-4,8-epiminocycloocta [c]pyrazole-10-carbonyl)-1H-indol-1-yl)-2-methylcyclopropyl)-1,2,4-oxadiazol-5 (4H)-one]",EC50,human GLP-1R,> 0.1 µM
"Cc1cc(-n2nc3c(c2-n2ccn(-c4ccc5c(cnn5C)c4F)c2=O)[C@@H]2COC[C@H](C3)N2C(=O)c2cc3cc(C4CCOC(C)(C)C4)cc(F)c3n2[C@@]2(c3noc(=O)[nH]3)C[C@@H]2C)cc(C)c1F (stereo partly drawn) [Compound 619, 3-((1S,2S)-1-(5-(2,2-dimethyltetrahydro-2H-pyran-4-yl)-7-fluoro-2-((4R,8S)-3-(3-(4-fluoro-1-methyl-1H-indazol-5-yl)-2-oxo-2,3-dihydro-1H-imidazol-1-yl)-2-(4-fluoro-3,5-dimethylphenyl)-2,4,5,7,8,9-hexahydro-4,8-epiminooxocino [5,4-c]pyrazole-10-carbonyl)-1H-indol-1-yl)-2-methylcyclopropyl)-1,2,4-oxadiazol-5(4H)-one]",EC50,human GLP-1R,0.0054 µM
"Cc1cc(-n2nc3c(c2-n2ccn(-c4ccc5c(cnn5C)c4F)c2=O)[C@@H]2CCC[C@H](C3)N2C(=O)c2cc3cc([C@H]4CCOC(C)(C)C4)cc(F)c3n2[C@@]2(c3noc(=O)[nH]3)C[C@@H]2C)cc(C)c1F [Compound 707, 3-((1S,2S)-1-(5-((S)-2,2-dimethyltetrahydro-2H-pyran-4-yl)-7-fluoro-2-((4S,8R)-3-(3-(4-fluoro-1-methyl-1H-indazol-5-yl)-2-oxo-2,3-dihydro-1H-imidazol-1-yl)-2-(4-fluoro-3,5-dimethylphenyl)-4,5,6,7,8,9-hexahydro-2H-4,8-epiminocycloocta [c]pyrazole-10-carbonyl)-1H-indol-1-yl)-2-methylcyclopropyl)-1,2,4-oxadiazol-5 (4H)-one]",EC50,human GLP-1R,0.0025 µM
"Cc1cc(-n2nc3c(c2-n2ccn(-c4ccc5c(cnn5C)c4F)c2=O)[C@@H]2CC[C@H](C3)N2C(=O)c2cc3cc(C4CCOC(C)(C)C4)c(F)cc3n2[C@@]2(c3noc(=O)[nH]3)C[C@@H]2C)cc(C)c1F (stereo partly drawn) [Compound 716, 3-[(1S,2S)-1-[5-(2,2-dimethyltetrahydropyran-4-yl)-6-fluoro-2-[(1S,8R)-4-(4-fluoro-3,5-dimethyl-phenyl)-3-[3-(4-fluoro-1-methyl-indazol-5-yl)-2-oxo-imidazol-1-yl]-4,5,11-triazatricyclo[6.2.1.02,6]undeca-2,5-diene-11-carbonyl]indol-1-yl]-2-methyl-cyclopropyl]-4H-1,2,4-oxadiazol-5-one]",EC50,human GLP-1R,0.005 µM
"CNC(=O)Cc1ccc(-n2ccn(-c3c4c(nn3-c3cc(C)c(F)c(C)c3)C[C@H]3CCC[C@@H]4N3C(=O)c3cc4cc([C@H]5CCOC(C)(C)C5)ccc4n3[C@@]3(c4noc(=O)[nH]4)C[C@@H]3C)c2=O)cc1F [Compound 611, 2-(4-(3-((4S,8R)-10-(5-((S)-2,2-dimethyltetrahydro-2H-pyran-4-yl)-1-((1S,2S)-2-methyl-1-(5-oxo-4,5-dihydro-1,2,4-oxadiazol-3-yl)cyclopropyl)-1H-indole-2-carbonyl)-2-(4-fluoro-3,5-dimethylphenyl)-4,5,6,7,8,9-hexahydro-2H-4,8-epiminocycloocta [c]pyrazol-3-yl)-2-oxo-2,3-dihydro-1H-imidazol-1-yl)-2-fluorophenyl)-N-methylacetamide]",EC50,human GLP-1R,0.0051 µM
